Data taken from patent publication US20250144067A1, “PERSONALIZED STARVATION THERAPY FOR CANCER” (Faeth Therapeutics, Inc., priority 2021, published 2025).
Counter-ions that a name gives are not always drawn. Like-named read-outs stand apart in the source and are kept apart here.

Key:
[1] = tested on: NCI-H292 lung cancer cells; experiment: FDA drug screening, complete media vs cholesterol-free media without statin (TABLE 1); assay type: cell-based, human
[2] = tested on: NCI-H292 lung cancer cells; experiment: FDA drug screening, complete media vs cholesterol-free media with simvastatin (TABLE 2); assay type: cell-based, human
[3] = NCI-H292 cells, cholesterol-free media without statin
[4] = complete vs cholesterol-free media, greater than 0 enhanced anti-cancer activity, about 0 neutral, below 0 antagonists
[5] = NCI-H292 cells, cholesterol-free media with simvastatin 0.04 μM, cell growth value in FDA drug screen
[6] = NCI-H292 cells, complete media, cell growth value in FDA drug screen
[7] = complete media minus cholesterol-free media + simvastatin, >0 enhanced anti-cancer activity, about 0 neutral, <0 antagonist
[8] = NCI-H292 cells, drug in cholesterol-free media with simvastatin 0.04 μM
[9] = NCI-H292 cells, drug in complete media
[10] = complete media vs cholesterol-free media + simvastatin (0.04 μM), >0 enhanced anti-cancer activity, about 0 neutral, <0 antagonist
[11] = Complete minus Cholesterol-free, >0 enhanced anti-cancer activity, about 0 neutral, <0 antagonist
[12] = NCI-H292 cells, cholesterol-free media without statin, FDA drug library screen
[13] = NCI-H292 cells, complete media, FDA drug library screen
[14] = NCI-H292 cells, FDA library drug in cholesterol-free media with simvastatin 0.04 μM
[15] = NCI-H292 cells, FDA library drug in complete media
[16] = Complete minus Cholesterol-free, […]
[17] = NCI-H292 cells, FDA drug library screen, cholesterol-free media without statin
[18] = NCI-H292 cells, FDA drug library screen, complete media
[19] = complete media vs cholesterol-free media + simvastatin (0.04 μM), […]
[20] = NCI-H292 cells, cholesterol-free media with simvastatin 0.04 μM, FDA drug library screen (TABLE 2)
[21] = NCI-H292 cells, complete media, FDA drug library screen (TABLE 2)
[22] = complete media minus cholesterol-free media + simvastatin (0.04 μM), […]
[23] = NCI-H292 cells, FDA drug library screen, cholesterol-free media with simvastatin 0.04 μM
[24] = Complete minus Cholesterol-free, greater than 0 enhanced anti-cancer activity, about 0 neutral, below 0 antagonist
[25] = complete media minus cholesterol-free media + simvastatin (0.04 μM), >0 enhanced anti-cancer activity, about 0 neutral, <0 antagonist

CCCc1nc(C)c2c(=O)[nH]c(-c3cc(S(=O)(=O)N4CCN(CC)CC4)ccc3OCC)nn12 [Vardenafil (hydrochloride)]
Cholesterol-free [1, 3]: 1.352 | Complete ([1]; NCI-H292 cells, complete media): 0.985 | Difference [1, 4]: −0.37 | Cholesterol-free media + simvastatin (0.04 μM) [2, 5]: 1.201 | Complete Media [2, 6]: 1.248 | Difference [2, 7]: 0.05

CC(=O)OCC[N+](C)(C)C.[I-] [Acetylcholine (iodide)]
Cholesterol-free [1, 3]: 1.351 | Complete ([1]; NCI-H292 cells, complete media): 1 | Difference [1, 4]: −0.35 | Cholesterol-free media + simvastatin (0.04 μM) [2, 8]: 1.762 | Complete Media [2, 9]: 1.59 | Difference [2, 10]: −0.17

O=C(OCC(O)CO)c1ccccc1Nc1ccnc2cc(Cl)ccc12 (centres unmarked) [Glafenine]
Cholesterol-free [1]: 1.288 | Difference [1]: −0.12 | Cholesterol-free media + simvastatin (0.04 μM) [2]: 0.9477 | Complete Media [2]: 1.068 | Difference [2]: 0.12

NCCCCCC(=O)O [6-Aminocaproic acid]
Cholesterol-free [1]: 1.11 | Complete [1]: 1.715 | Difference [1]: 0.60 | Cholesterol-free media + simvastatin (0.04 μM) [2]: 1.226 | Complete Media [2]: 1.745 | Difference [2]: 0.52

Cc1ccccc1C(=O)Nc1ccc(C(=O)N2CCCC(O)c3cc(Cl)ccc32)c(C)c1 (centres unmarked) [Tolvaptan]
Difference [1, 11]: −0.06 | Cholesterol-free [1, 12]: 0.8732 | Complete [1, 13]: 0.8126 | Cholesterol-free media + simvastatin (0.04 μM) [2, 14]: 2.102 | Complete Media [2, 15]: 1.367 | Difference [2, 10]: −0.73

C/C1=C2/[N-][C@H]([C@H](CC(N)=O)[C@@]2(C)CCC(=O)NC[C@@H](C)OP(=O)([O-])O[C@H]2[C@@H](O)[C@@H](n3cnc4cc(C)c(C)cc43)O[C@@H]2CO)[C@]2(C)N=C(/C(C)=C3N=C(/C=C4N=C1[C@@H](CCC(N)=O)C\4(C)C)[C@@H](CCC(N)=O)[C@]\3(C)CC(N)=O)[C@@H](CCC(N)=O)[C@]2(C)CC(N)=O.[CH3-].[Co+3] [Methylcobalamin]
Difference [1, 16]: −0.18 | Cholesterol-free [1, 17]: 1.021 | Complete [1, 18]: 0.8435 | Cholesterol-free media + simvastatin (0.04 μM) [2, 14]: 1.749 | Complete Media [2, 15]: 0.8589 | Difference [2, 19]: −0.89

CCCCCCCCCCCC(=O)OCN1C(=O)CCc2ccc(OCCCCN3CCN(c4cccc(Cl)c4Cl)CC3)cc21 [Aripiprazole Lauroxil]
Difference [1, 16]: −0.06 | Cholesterol-free [1, 12]: 0.9297 | Complete [1, 13]: 0.8705 | Cholesterol-free media + simvastatin (0.04 μM) [2, 20]: 0.9724 | Complete Media [2, 21]: 0.9697 | Difference [2, 22]: 0.00

CSc1ccc2c(c1)N(CCC1CCCCN1C)c1ccccc1S2 (centres unmarked) [Thioridazine (hydrochloride)]
Cholesterol-free [1, 12]: 1.045 | Complete [1, 13]: 1.124 | Difference ([1]; complete vs cholesterol-free media, >0 enhanced anti-cancer activity, about 0 neutral, <0 antagonist): 0.08 | Cholesterol-free media + simvastatin (0.04 μM) [2, 23]: 1.073 | Complete Media [2, 18]: 0.9459 | Difference [2, 10]: −0.13

CN1CC2c3ccccc3Oc3ccc(Cl)cc3C2C1 (centres unmarked) [Asenapine]
Cholesterol-free [1, 3]: 1.636 | Complete ([1]; NCI-H292 cells, complete media): 1.303 | Difference [1, 4]: −0.33 | Cholesterol-free media + simvastatin (0.04 μM) [2, 8]: 0.918 | Complete Media [2, 9]: 0.7002 | Difference [2, 10]: −0.22

CN1[C@H]2C[C@H](OC(=O)[C@H](CO)c3ccccc3)C[C@@H]1[C@@H](O)C2 (racemic) [Racanisodamine]
Difference [1, 16]: −0.15 | Cholesterol-free [1, 17]: 1.184 | Complete [1, 18]: 1.034 | Cholesterol-free media + simvastatin (0.04 μM) [2, 20]: 0.9483 | Complete Media [2, 21]: 0.9207 | Difference [2, 22]: −0.03

Gabexate (mesylate)
Difference [1, 24]: −0.15 | Cholesterol-free [1, 17]: 1.126 | Complete [1, 18]: 0.973 | Cholesterol-free media + simvastatin (0.04 μM) [2, 8]: 1.435 | Complete Media [2, 9]: 1.185 | Difference [2, 10]: −0.25

O=C1OC(c2ccc(O)cc2)(c2ccc(O)cc2)c2ccccc21 [Phenolphthalein]
Difference [1, 11]: −0.30 | Cholesterol-free [1, 3]: 1.17 | Complete ([1]; NCI-H292 cells, complete media): 0.8721 | Cholesterol-free media + simvastatin (0.04 μM) [2, 8]: 1.026 | Complete Media [2, 9]: 0.7863 | Difference [2, 10]: −0.24

Cn1c([N+](=O)[O-])cnc1COC(N)=O [Ronidazole]
Cholesterol-free [1, 3]: 1.54 | Complete ([1]; NCI-H292 cells, complete media): 1.069 | Difference [1, 4]: −0.47 | Cholesterol-free media + simvastatin (0.04 μM) [2, 23]: 0.9748 | Complete Media [2, 18]: 1.335 | Difference [2, 7]: 0.36

Amlodipine (maleate)
Cholesterol-free [1]: 1.127 | Complete [1]: 0.9069 | Difference [1]: −0.22 | Cholesterol-free media + simvastatin (0.04 μM) [2]: 1.087 | Complete Media [2]: 0.7885 | Difference [2]: −0.30

NC(=O)[C@@H]1CC[C@@H]2CN1C(=O)N2OS(=O)(=O)O [Avibactam (sodium)]
Difference ([1]; Complete minus Cholesterol-free, greater than 0 enhanced anti-cancer activity, about 0 neutral, below 0 antagonists): −0.74 | Cholesterol-free ([1]; NCI-H292 cells in cholesterol-free media without statin): 1.514 | Complete ([1]; NCI-H292 cells in complete media): 0.7743 | Cholesterol-free media + simvastatin (0.04 μM) [2, 5]: 1.031 | Complete Media [2, 6]: 1.132 | Difference [2, 7]: 0.10

[H]/N=C(/N)N/C(=N/[H])NCCc1ccccc1 [Phenformin (hydrochloride)]
Difference [1, 24]: −0.12 | Cholesterol-free [1, 17]: 0.9657 | Complete [1, 18]: 0.8472 | Cholesterol-free media + simvastatin (0.04 μM) [2, 23]: 1.171 | Complete Media [2, 18]: 1.373 | Difference [2, 7]: 0.20

C=CCc1ccc(O)c(-c2cc(CC=C)ccc2O)c1 [Magnolol]
Cholesterol-free [1, 12]: 0.6495 | Complete [1, 13]: 1.053 | Difference ([1]; complete vs cholesterol-free media, […]): 0.40 | Cholesterol-free media + simvastatin (0.04 μM) [2, 8]: 1.293 | Complete Media [2, 9]: 1.087 | Difference [2, 19]: −0.21

Bleomycin (sulfate)
Difference [1, 16]: −0.05 | Cholesterol-free [1, 12]: 0.05041 | Complete [1, 13]: −0.00442 | Cholesterol-free media + simvastatin (0.04 μM) ([2]; NCI-H292 cells, cholesterol-free media with simvastatin 0.04 μM, […]): 0.1778 | Complete Media ([2]; NCI-H292 cells, complete media, […]): 0.2205 | Difference ([2]; complete media minus cholesterol-free media + simvastatin, […]): 0.04

COc1cc2nccc(Oc3ccc(NC(=O)Nc4cc(C)on4)c(Cl)c3)c2cc1OC [Tivozanib]
Cholesterol-free [1, 3]: 1.298 | Complete ([1]; NCI-H292 cells, complete media): 0.868 | Difference [1, 4]: −0.43 | Cholesterol-free media + simvastatin (0.04 μM) [2, 23]: 0.868 | Complete Media [2, 18]: 1.06 | Difference [2, 7]: 0.19

CC(=O)N1CCN(c2ccc(OC[C@H]3CO[C@](Cn4ccnc4)(c4ccc(Cl)cc4Cl)O3)cc2)CC1 [(+)-Ketoconazole]
Difference [1, 11]: −0.24 | Cholesterol-free [1, 3]: 1.237 | Complete ([1]; NCI-H292 cells, complete media): 0.9934 | Cholesterol-free media + simvastatin (0.04 μM) [2, 23]: 0.4743 | Complete Media [2, 18]: 0.9511 | Difference [2, 7]: 0.48

Triamcinolone (acetonide)
Difference [1, 11]: −0.04 | Cholesterol-free [1, 12]: 0.5663 | Complete [1, 13]: 0.5288 | Cholesterol-free media + simvastatin (0.04 μM) [2, 20]: 0.6359 | Complete Media [2, 21]: 0.588 | Difference [2, 25]: −0.05

CN1CCOC(c2ccccc2)c2ccccc2C1 (centres unmarked) [Nefopam (hydrochloride)]
Cholesterol-free [1, 3]: 1.379 | Complete ([1]; NCI-H292 cells, complete media): 0.9673 | Difference [1, 4]: −0.41 | Cholesterol-free media + simvastatin (0.04 μM) [2, 20]: 1.077 | Complete Media [2, 21]: 1.041 | Difference [2, 25]: −0.04
